The source of these data is patent publication US12447153B2, “HER2 mutation inhibitors” (Array BioPharma Inc., priority 2021, dated 2025).

Usually IC50 stands for the midpoint of a concentration-inhibition curve. A lower IC50 goes with greater potency in that assay.

The target in one data set is EGFR wild type (EGFR WT) (Homo sapiens (Human), UniProt P00533). Kind of data set: Cellular Phosphorylation Assay, Assay 5 (EGF-stimulated EGFR phosphorylation, NIH 3T3 cells). It counts as cell-based.
EGFR wild type (EGFR WT), sequence (P00533 25-1210): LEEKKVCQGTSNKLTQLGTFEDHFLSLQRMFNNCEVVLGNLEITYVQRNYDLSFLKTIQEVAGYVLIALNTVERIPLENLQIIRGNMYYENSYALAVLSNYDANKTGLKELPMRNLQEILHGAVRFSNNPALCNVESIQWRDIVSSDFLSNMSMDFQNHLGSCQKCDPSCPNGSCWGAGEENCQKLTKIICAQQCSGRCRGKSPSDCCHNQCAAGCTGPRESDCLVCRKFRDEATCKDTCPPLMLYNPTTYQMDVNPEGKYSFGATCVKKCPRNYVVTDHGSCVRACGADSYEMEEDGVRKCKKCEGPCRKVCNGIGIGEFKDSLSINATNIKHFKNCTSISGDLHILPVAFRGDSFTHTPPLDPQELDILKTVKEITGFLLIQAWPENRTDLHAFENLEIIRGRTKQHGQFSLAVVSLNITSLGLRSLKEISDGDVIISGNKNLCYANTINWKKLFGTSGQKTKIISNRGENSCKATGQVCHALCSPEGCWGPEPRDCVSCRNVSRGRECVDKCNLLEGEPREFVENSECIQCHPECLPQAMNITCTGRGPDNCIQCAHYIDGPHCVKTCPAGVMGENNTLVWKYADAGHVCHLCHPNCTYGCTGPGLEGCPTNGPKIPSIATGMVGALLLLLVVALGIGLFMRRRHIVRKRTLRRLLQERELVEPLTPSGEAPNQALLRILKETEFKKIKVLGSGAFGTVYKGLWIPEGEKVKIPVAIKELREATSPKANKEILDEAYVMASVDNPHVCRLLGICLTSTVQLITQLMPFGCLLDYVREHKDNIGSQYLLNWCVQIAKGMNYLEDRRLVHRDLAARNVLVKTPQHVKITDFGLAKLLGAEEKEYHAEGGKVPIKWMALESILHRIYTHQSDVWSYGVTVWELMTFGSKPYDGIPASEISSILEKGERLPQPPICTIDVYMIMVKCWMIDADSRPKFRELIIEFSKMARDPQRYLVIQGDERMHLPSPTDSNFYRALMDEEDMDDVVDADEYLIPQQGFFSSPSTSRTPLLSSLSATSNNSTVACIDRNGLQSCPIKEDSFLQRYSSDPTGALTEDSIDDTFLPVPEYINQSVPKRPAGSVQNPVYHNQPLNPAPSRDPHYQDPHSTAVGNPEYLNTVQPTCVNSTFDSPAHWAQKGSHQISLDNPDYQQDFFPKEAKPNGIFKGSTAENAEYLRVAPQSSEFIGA
Data set [1] concerns the target BCRP transfected MDCKII cells (Homo sapiens (Human), UniProt Q9UNQ0). Briefly: BCRP MDCKII efflux assay (Assay 7). The format is in vitro ADME. Particulars: efflux ratio Papp(B-A)/Papp(A-B). As for the experimental part: (§1) Assay conditions included with and without the BCRP-specific inhibitor, KO143, at a concentration of 0.3 μM to ascertain the contribution of BCRP to the efflux value of the test compound.
(§2) Final organic concentration in the assay was 1%.

A further data set concerns the target ErbB2 WT (Homo sapiens (Human), UniProt P04626). Briefly: ErbB Enzyme Assay (HTRF KinEASE-TK), Assay 2. It counts as biochemical.
Data set [2] has as its target MDR1 (P-gp) transfected LLC-PK1 cells (Homo sapiens (Human), UniProt P08183).
In another data set the target is EGFR (Homo sapiens (Human), UniProt P00533). Briefly: ErbB Enzyme Assay (HTRF KinEASE-TK), Assay 3. It counts as biochemical. On the technique in general: TR-FRET usually uses a lanthanide donor and a delayed reading to cut background.
EGFR, sequence (P00533 25-1210): as above
In data set [3] the target is ErbB2 with Exon 20 YVMA insertion (HER2-YVMA) (Homo sapiens (Human), UniProt P04626, INS775YVMA). Briefly: Cellular Phosphorylation Assay, Assay 4 (constitutive ErbB2 phosphorylation, NIH 3T3 cells). The format is cell-based.
ErbB2 with Exon 20 YVMA insertion (HER2-YVMA), sequence (P04626 other isoform, or with tags, fused parts or gaps ins YVMA behind 775): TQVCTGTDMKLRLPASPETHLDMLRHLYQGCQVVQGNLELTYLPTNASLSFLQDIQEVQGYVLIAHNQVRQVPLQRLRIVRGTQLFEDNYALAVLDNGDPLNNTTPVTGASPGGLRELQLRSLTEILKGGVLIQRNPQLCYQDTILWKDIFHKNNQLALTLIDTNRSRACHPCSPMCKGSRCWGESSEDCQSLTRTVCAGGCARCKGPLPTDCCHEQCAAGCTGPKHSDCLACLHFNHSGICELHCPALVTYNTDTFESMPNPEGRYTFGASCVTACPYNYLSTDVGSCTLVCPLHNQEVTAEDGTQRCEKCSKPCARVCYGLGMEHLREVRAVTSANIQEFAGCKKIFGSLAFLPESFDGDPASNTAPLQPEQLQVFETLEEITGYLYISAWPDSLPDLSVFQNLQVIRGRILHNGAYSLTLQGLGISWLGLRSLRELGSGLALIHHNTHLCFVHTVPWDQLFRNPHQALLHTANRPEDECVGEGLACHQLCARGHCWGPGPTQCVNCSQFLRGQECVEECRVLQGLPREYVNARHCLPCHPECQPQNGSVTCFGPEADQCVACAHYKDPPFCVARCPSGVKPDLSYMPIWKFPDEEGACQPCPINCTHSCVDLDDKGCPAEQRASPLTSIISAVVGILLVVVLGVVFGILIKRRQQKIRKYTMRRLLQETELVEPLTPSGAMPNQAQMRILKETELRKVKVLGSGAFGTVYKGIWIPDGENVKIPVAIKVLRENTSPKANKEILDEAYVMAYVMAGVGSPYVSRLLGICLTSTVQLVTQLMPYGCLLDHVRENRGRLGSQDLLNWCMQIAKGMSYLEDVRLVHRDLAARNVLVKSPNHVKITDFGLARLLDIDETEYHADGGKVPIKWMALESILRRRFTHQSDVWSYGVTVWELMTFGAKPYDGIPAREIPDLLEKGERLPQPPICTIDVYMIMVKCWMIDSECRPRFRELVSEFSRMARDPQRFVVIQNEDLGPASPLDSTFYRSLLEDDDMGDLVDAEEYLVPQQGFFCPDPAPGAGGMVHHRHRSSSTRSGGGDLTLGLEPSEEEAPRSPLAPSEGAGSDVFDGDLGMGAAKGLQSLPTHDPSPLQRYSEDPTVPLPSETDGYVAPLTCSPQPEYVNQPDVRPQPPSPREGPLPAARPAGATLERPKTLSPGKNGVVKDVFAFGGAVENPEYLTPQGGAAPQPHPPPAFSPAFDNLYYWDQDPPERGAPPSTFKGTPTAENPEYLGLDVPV
In data set [4] the test system is BCRP. Briefly: BCRP MDCKII efflux assay (Assay 7). It counts as in vitro ADME. Particulars: dog; efflux ratio Papp(B-A)/Papp(A-B), BCRP MDCKII cells; read-out: Assay 7 Pe Ratio. As for the experimental part: as §1, §2
The target of a further data set is MDR1 (P-gp) (Homo sapiens (Human), UniProt P08183). Briefly: in vitro. Particulars: pig, LLC-PK1.
MDR1 (P-gp), sequence (P08183 whole entry): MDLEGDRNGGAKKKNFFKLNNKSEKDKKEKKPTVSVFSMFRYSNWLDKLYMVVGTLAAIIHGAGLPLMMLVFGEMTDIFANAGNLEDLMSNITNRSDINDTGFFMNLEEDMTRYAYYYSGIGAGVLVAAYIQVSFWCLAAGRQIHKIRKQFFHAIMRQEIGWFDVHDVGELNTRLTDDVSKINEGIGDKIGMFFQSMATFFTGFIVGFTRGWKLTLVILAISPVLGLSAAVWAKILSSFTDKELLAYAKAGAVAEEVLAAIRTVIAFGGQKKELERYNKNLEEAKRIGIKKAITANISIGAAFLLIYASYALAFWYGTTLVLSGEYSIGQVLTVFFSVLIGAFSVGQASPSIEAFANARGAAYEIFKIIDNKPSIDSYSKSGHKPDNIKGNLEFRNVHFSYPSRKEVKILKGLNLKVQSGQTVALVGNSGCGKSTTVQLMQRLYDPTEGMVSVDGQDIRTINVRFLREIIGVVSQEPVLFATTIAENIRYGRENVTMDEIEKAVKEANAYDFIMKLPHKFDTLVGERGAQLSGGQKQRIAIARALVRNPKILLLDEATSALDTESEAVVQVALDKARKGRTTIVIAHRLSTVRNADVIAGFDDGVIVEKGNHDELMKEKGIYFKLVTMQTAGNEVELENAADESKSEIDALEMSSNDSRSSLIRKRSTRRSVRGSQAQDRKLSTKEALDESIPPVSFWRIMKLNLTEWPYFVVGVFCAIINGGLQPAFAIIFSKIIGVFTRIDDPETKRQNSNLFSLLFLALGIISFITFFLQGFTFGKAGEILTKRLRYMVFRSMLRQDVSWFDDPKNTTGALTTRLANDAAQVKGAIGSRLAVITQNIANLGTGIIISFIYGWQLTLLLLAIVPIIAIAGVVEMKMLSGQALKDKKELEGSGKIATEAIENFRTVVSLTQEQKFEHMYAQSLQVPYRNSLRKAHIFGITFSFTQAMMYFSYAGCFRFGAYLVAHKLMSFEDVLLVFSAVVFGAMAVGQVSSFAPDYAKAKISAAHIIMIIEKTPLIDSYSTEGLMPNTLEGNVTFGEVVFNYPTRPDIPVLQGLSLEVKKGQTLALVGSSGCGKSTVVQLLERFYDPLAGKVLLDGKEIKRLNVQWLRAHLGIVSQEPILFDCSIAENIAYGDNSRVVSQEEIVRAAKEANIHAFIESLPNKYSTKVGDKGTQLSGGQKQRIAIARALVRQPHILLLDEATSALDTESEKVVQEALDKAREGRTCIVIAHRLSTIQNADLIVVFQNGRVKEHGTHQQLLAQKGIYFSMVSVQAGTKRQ
Data set [5] deals with BCRP (Homo sapiens (Human), UniProt Q9UNQ0). Briefly: BCRP MDCKII efflux assay (Assay 7). The format is in vitro ADME. As to conditions: dog; efflux ratio Papp(B-A)/Papp(A-B), BCRP MDCKII cells; read-out: Assay 7 Pe Ratio. As to the method:
as §1, §2

The mark [6] stands for this setting: EGF-stimulated EGFR WT phosphorylation.

Consider `C=CC(=O)N1[C@@H]2CC[C@H]1C[C@@H](c1ccc3ncnc(Nc4ccc(Oc5cnc6c(c5)ncn6C)c(C)c4F)c3n1)C2` [Example 227, 1-((1R,3r,5S)-3-(4-((2-fluoro-3-methyl-4-((3-methyl-3H-imidazo[4,5-b]pyridin-6-yl)oxy)phenyl)amino)pyrido[3,2-d]pyrimidin-6-yl)-8-azabicyclo[3.2.1]octan-8-yl)prop-2-en-1-one], for which the IC50 is 5000 nM against EGFR wild type (EGFR WT) (setting [6]), 138 nM against ErbB2 WT (ErbB2 WT enzyme), 3790 nM against EGFR (EGFR enzyme) and 26.8 nM in data set [3] (ErbB2 YVMA phosphorylation). For the same molecule, the “Assay 7 Pe Ratio” value in data set [1] turned out to be 5.5. For the same molecule, in data set [2], the efflux ratio amounted to 1.2.
Regarding `C=CC(=O)N1C[C@@H]2C[C@H]1C[C@H]2c1ccc2ncnc(Nc3ccc(Oc4ccc5c(c4)ncn5C)c(C)c3F)c2n1` (racemic) [Example 203, rac-1-((1S,4R,5R)-5-(4-((2-fluoro-3-methyl-4-((1-methyl-1H-benzo[d]imidazol-5-yl)oxy)phenyl)amino)pyrido[3,2-d]pyrimidin-6-yl)-2-azabicyclo[2.2.1]heptan-2-yl)prop-2-en-1-one], the IC50 worked out at 1450 nM at EGFR wild type (EGFR WT) (setting [6]), 13.3 nM on ErbB2 WT (ErbB2 WT enzyme), 401 nM on EGFR (EGFR enzyme) and 16.7 nM in data set [3] (ErbB2 YVMA phosphorylation). Also, the results for the efflux ratio at 2 h, 1 µM with BCRP [4] and at MDR1 (P-gp) were 0.6 and 1.1, respectively.
In the case of `C=CC(=O)N1CCC[C@@H](c2ccc3ncnc(Nc4ccc(Oc5ccc6c(c5)ncn6C)c(C)c4F)c3n2)C1` (racemic) [Example 144, rac-(R)-1-(3-(4-((2-fluoro-3-methyl-4-((1-methyl-1H-benzo[d]imidazol-5-yl)oxy)phenyl)amino)pyrido[3,2-d]pyrimidin-6-yl)piperidin-1-yl)prop-2-en-1-one], the IC50 was 1070 nM against EGFR wild type (EGFR WT) (setting [6]), 25 nM at ErbB2 WT (ErbB2 WT enzyme), 650 nM on EGFR (EGFR enzyme) and 11.7 nM in [3] (ErbB2 YVMA phosphorylation). Moreover, the efflux ratio at 2 h, 1 µM worked out at 0.6 in the data set with BCRP [4] and 1.2 at MDR1 (P-gp).
Consider `C=CC(=O)N1CC2CCC(C1)N2c1ccc2ncnc(Nc3cc(C)c(Oc4ccn5ncnc5c4)cc3F)c2n1` [Example 454], for which the IC50 on EGFR wild type (EGFR WT) (cellular EGFR WT phosphorylation, EGF-stimulated) was 680 nM; against ErbB2 WT (ErbB2 WT enzyme assay) it was 35.6 nM; at EGFR (EGFR enzyme assay) it was 1180 nM; in [3] (cellular ErbB2 YVMA phosphorylation), 14.1 nM. Besides, the figures for the efflux ratio at 2 h, 1 µM in the data set with BCRP [4] and at MDR1 (P-gp) were 0.6 and 0.8, respectively.
As to `C=CC(=O)N1CCN(c2ccc3ncnc(Nc4ccc(Oc5cnc6c(c5)ncn6C)c(C)c4F)c3n2)CC1(C)C` [Example 247, 1-(4-(4-((2-fluoro-3-methyl-4-((3-methyl-3H-imidazo[4,5-b]pyridin-6-yl)oxy)phenyl)amino)pyrido[3,2-d]pyrimidin-6-yl)-2,2-dimethylpiperazin-1-yl)prop-2-en-1-one], the IC50 was at least 5000 nM against EGFR wild type (EGFR WT) (setting [6]), 71.5 nM against ErbB2 WT (ErbB2 WT enzyme), at least 10000 nM on EGFR (EGFR enzyme) and 8.9 nM in data set [3] (ErbB2 YVMA phosphorylation). Moreover, the efflux ratio at 2 h, 1 µM was 1.9 on BCRP [5] and 0.8 at MDR1 (P-gp).
